Target: T1, human PAH with the R408W mutation (A375 R408W cells) (Homo sapiens, UniProt P00439, R408W)
T1 construct: expressed in transfected cells
T1 sequence (P00439 1-452 R408W): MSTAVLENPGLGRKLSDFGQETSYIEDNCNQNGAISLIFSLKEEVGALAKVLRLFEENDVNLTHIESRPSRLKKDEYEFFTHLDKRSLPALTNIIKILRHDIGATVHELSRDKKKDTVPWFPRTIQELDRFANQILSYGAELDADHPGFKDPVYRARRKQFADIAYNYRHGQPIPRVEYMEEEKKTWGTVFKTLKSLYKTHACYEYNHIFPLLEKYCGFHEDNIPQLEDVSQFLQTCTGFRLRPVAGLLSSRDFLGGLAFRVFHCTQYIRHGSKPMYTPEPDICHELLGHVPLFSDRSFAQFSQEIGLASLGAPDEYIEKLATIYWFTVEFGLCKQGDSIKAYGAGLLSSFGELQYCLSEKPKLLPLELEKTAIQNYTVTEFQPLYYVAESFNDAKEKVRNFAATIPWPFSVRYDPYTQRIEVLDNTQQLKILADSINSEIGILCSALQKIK
Test: Cell Based Phenylalanine Flux Assay
Settings: A375 R408W cells; 24 hrs with compound, then 20 μM sepiapterin and 800 μM 13C9,15N-Phenylalanine for 4 hours; 13C-Tyrosine by LC-MS; average where tested multiple times
Method in brief: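 A375 cells stably expressing lentiviral human PAH R408W were treated with compounds (10-point 2-fold dilutions, 0.5% DMSO, duplicate) for 24 h at 37 °C. Then 20 μM sepiapterin and 800 μM 13C9,15N-Phe were added for 4 h; media 13C-Tyr was measured by LC-MS to give AC50.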

AC50 [nM] | Compound
500 to 1000 | Cc1ccc2nc([C@@H]3c4nc[nH]c4CCN3C(=O)c3nnc(-c4cnn(C(F)F)c4)o3)oc2c1 [Example 681, (S)-(5-(1-(difluoromethyl)-1H-pyrazol-4-yl)-1,3,4-oxadiazol-2-yl)(4-(6-methylbenzo[d]oxazol-2-yl)-6,7-dihydro-1H-imidazo[4,5-c]pyridin-5(4H)-yl)methanone]
1000 to 5000 | CC(C)(O)c1nc(C(F)F)c(C(=O)N2CCc3[nH]cnc3[C@@H]2c2nc3cccc(C(F)(F)F)c3o2)o1 [Example 454, (R)-(4-(difluoromethyl)-2-(2-hydroxypropan-2-yl)oxazol-5-yl)(4-(7-(trifluoromethyl)benzo[d]oxazol-2-yl)-6,7-dihydro-1H-imidazo[4,5-c]pyridin-5(4H)-yl)methanone]
≤ 500 | CC(C)(O)c1nc(C(F)(F)F)c(C(=O)N2CCc3[nH]cnc3[C@H]2c2nc3c(F)cccc3o2)o1 [Example 257, (S)-(4-(4-fluorobenzo[d]oxazol-2-yl)-6,7-dihydro-1H-imidazo[4,5-c]pyridin-5(4H)-yl)(2-(2-hydroxypropan-2-yl)-4-(trifluoromethyl)oxazol-5-yl)methanone]
1000 to 5000 | Cc1ncoc1C(=O)N1Cc2[nH]cnc2[C@H]1c1nc2ccccc2o1 [Example 941, (S)-(4-(benzo[d]oxazol-2-yl)-4,6-dihydropyrrolo[3,4-d]imidazol-5(1H)-yl)(4-methyloxazol-5-yl)methanone]
≤ 500 | Cc1ncoc1C(=O)N1CCc2[nH]cnc2[C@H]1c1nc2c(F)ccc(F)c2o1 [Example 807, (S)-(4-(4,7-difluorobenzo[d]oxazol-2-yl)-6,7-dihydro-1H-imidazo[4,5-c]pyridin-5(4H)-yl)(4-methyloxazol-5-yl)methanone]
≥ 5000 | O=C(c1cnn2cc(F)c(Cl)cc12)N1CCc2[nH]cnc2[C@@H]1c1nc2cc(F)ccc2o1 [Example 220, (R)-(5-chloro-6-fluoropyrazolo[1,5-a]pyridin-3-yl)(4-(5-fluorobenzo[d]oxazol-2-yl)-6,7-dihydro-1H-imidazo[4,5-c]pyridin-5(4H)-yl)methanone]
≥ 5000 | Cc1nc([C@H](C)O)oc1C(=O)N1CCc2[nH]cnc2[C@@H]1c1nc2ccc(F)cc2o1 [Example 242, ((R)-4-(6-fluorobenzo[d]oxazol-2-yl)-6,7-dihydro-1H-imidazo[4,5-c]pyridin-5(4H)-yl)(2-((S)-1-hydroxyethyl)-4-methyloxazol-5-yl)methanone]
≤ 500 | CC(C)(O)c1nc(C(F)F)c(C(=O)N2CCc3[nH]cnc3[C@H]2c2nc3cccc(Br)c3o2)o1 [Example 460, (S)-(4-(7-bromobenzo[d]oxazol-2-yl)-6,7-dihydro-1H-imidazo[4,5-c]pyridin-5(4H)-yl)(4-(difluoromethyl)-2-(2-hydroxypropan-2-yl)oxazol-5-yl)methanone]
≤ 500 | O=C(c1ocnc1C(F)F)N1CCc2[nH]cnc2[C@H]1c1nc2cccc(Br)c2o1 [Example 461, (S)-(4-(7-bromobenzo[d]oxazol-2-yl)-6,7-dihydro-1H-imidazo[4,5-c]pyridin-5(4H)-yl)(4-(difluoromethyl)oxazol-5-yl)methanone]
≤ 500 | O=C(c1oc(-c2cnccn2)nc1C(F)F)N1CCc2[nH]cnc2[C@@H]1c1nc2cccc(F)c2o1 [Example 694, (R)-(4-(difluoromethyl)-2-(pyrazin-2-yl)oxazol-5-yl)(4-(7-fluorobenzo[d]oxazol-2-yl)-6,7-dihydro-1H-imidazo[4,5-c]pyridin-5(4H)-yl)methanone]
≥ 5000 | O=C(c1cnn2cc(N3CCC(F)CC3)ccc12)N1CCc2[nH]cnc2[C@@H]1c1nc2c(F)cccc2o1 [Example 478, (R)-(4-(4-fluorobenzo[d]oxazol-2-yl)-6,7-dihydro-1H-imidazo[4,5-c]pyridin-5(4H)-yl)(6-(4-fluoropiperidin-1-yl)pyrazolo[1,5-a]pyridin-3-yl)methanone]
500 to 1000 | O=C(c1nnc(-c2ccccn2)o1)N1CCc2[nH]cnc2[C@H]1c1nc2cc(F)cc(F)c2o1 [Example 580, (S)-(4-(5,7-difluorobenzo[d]oxazol-2-yl)-6,7-dihydro-1H-imidazo[4,5-c]pyridin-5(4H)-yl)(5-(pyridin-2-yl)-1,3,4-oxadiazol-2-yl)methanone]

The remaining lines, values behind:

Compound | AC50 [nM]
O=C([C@@H]1CC1(F)F)N1CCc2[nH]cnc2[C@@H]1c1nc2cc(F)ccc2o1 [Example 62, ((S)-2,2-difluorocyclopropyl)((R)-4-(5-fluorobenzo[d]oxazol-2-yl)-6,7-dihydro-1H-imidazo[4,5-c]pyridin-5(4H)-yl)methanone] | 1000 to 5000
COc1ccc2c(C(=O)N3CCc4[nH]cnc4[C@H]3c3nc4cc(F)ccc4o3)cnn2c1 [Example 73, (S)-(4-(5-fluorobenzo[d]oxazol-2-yl)-6,7-dihydro-1H-imidazo[4,5-c]pyridin-5(4H)-yl)(6-methoxypyrazolo[1,5-a]pyridin-3-yl)methanone] | 500 to 1000
O=C(c1cnc(-c2ccccn2)o1)N1CCc2[nH]cnc2[C@H]1c1nc2cc(F)ccc2o1 [Example 11, (S)-(4-(5-fluorobenzo[d]oxazol-2-yl)-6,7-dihydro-1H-imidazo[4,5-c]pyridin-5(4H)-yl)(2-(pyridin-2-yl)oxazol-5-yl)methanone] | 500 to 1000
Cc1nc([C@@H](C)O)oc1C(=O)N1CCc2[nH]cnc2[C@H]1c1nc2cccc(F)c2o1 [Example 217, ((S)-4-(7-fluorobenzo[d]oxazol-2-yl)-6,7-dihydro-1H-imidazo[4,5-c]pyridin-5(4H)-yl)(2-((R)-1-hydroxyethyl)-4-methyloxazol-5-yl)methanone] | ≤ 500
CN(C)Cc1cn2ncc(C(=O)N3CCc4[nH]cnc4[C@@H]3c3nc4cc(F)ccc4o3)c2cc1Cl [Example 204, (R)-(5-chloro-6-((dimethylamino)methyl)pyrazolo[1,5-a]pyridin-3-yl)(4-(5-fluorobenzo[d]oxazol-2-yl)-6,7-dihydro-1H-imidazo[4,5-c]pyridin-5(4H)-yl)methanonee] | 1000 to 5000
Cc1ccc2oc([C@@H]3c4nc[nH]c4CCN3C(=O)c3ocnc3C(F)F)nc2c1 [Example 137, (S)-(4-(difluoromethyl)oxazol-5-yl)(4-(5-methylbenzo[d]oxazol-2-yl)-6,7-dihydro-1H-imidazo[4,5-c]pyridin-5(4H)-yl)methanone] | ≤ 500
O=C(CC1CC(F)C1)N1CCc2[nH]cnc2[C@H]1c1nc2cc(F)ccc2o1 (stereo partly drawn) [Example 59, (S)-1-(4-(5-fluorobenzo[d]oxazol-2-yl)-6,7-dihydro-1H-imidazo[4,5-c]pyridin-5(4H)-yl)-2-(3-fluorocyclobutyl)ethanone] | 500 to 1000

Same assay, conditions: A375 cells expressing R408W PAH; 24 hrs with compound, then 20 μM sepiapterin and 800 μM 13C9,15N-Phenylalanine for 4 hours; 13C-Tyrosine by LC-MS; average where tested multiple times

AC50 [nM] | Compound
1000 to 5000 | Cn1ccc(-c2nnc(C(=O)N3CCc4[nH]cnc4C3c3nc4cc(C(F)(F)F)ccc4o3)o2)n1 (centres unmarked)
1000 to 5000 | Cn1cc(-c2ncc(C(=O)N3CCc4[nH]cnc4C3c3nc4ccc(Br)cc4o3)s2)cn1 (centres unmarked)
≥ 5000 | O=C(c1cncs1)N1CCc2[nH]cnc2C1c1nc2cc(F)ccc2o1 (centres unmarked)
1000 to 5000 | O=C(Cc1cnco1)N1CCc2[nH]cnc2C1c1nc2cc(F)ccc2o1 (centres unmarked)
≥ 5000 | Cn1ncnc1C(=O)N1CCc2[nH]cnc2C1c1nc2ccc(F)cc2o1 (centres unmarked)
≥ 5000 | COCc1ccc2c(C(=O)N3CCc4[nH]cnc4C3c3nc4ccc(C)cc4o3)cnn2c1 (centres unmarked)
1000 to 5000 | Cc1nc(C(=O)N2CCc3[nH]cnc3C2c2nc3c(F)cccc3o2)n(C)n1 (centres unmarked)
